Columns and labels:
Assay in all cases: concentration in plasma after dosing
[1] = test system: Rat; settings: 10 min; dosed: Di-n-butyl phthalate; 20 mg/kg; iv; Male; Sprague-Dawley
[2] = test system: Rat; settings: 5 min; dosed: Di-n-butyl phthalate; 20 mg/kg; iv; Male; Sprague-Dawley
[3] = test system: Rat; settings: iv
[4] = test system: Rat; settings: 10 min; dosed: Di-n-butyl phthalate; 20 mg/kg; iv; Male; Sprague-Dawley; remark: listed apart in the source
[5] = test system: Rat; settings: 5 min; dosed: Di-n-butyl phthalate; 20 mg/kg; iv; Male; Sprague-Dawley; remark: listed apart in the source
[6] = test system: Rat; settings: dosed: perfluorohexane-1-sulphonic acid – potassium salt, 4 mg/kg, iv, Female, F344
[7] = test system: Rat; settings: dosed: perfluorohexane-1-sulphonic acid – potassium salt, 4 mg/kg, iv, Female, F344; remark: listed apart in the source
[8] = test system: Rat; settings: dosed: perfluorohexane-1-sulphonic acid – potassium salt, 4 mg/kg, iv, Female, F344; remark: listed apart in the source
[9] = test system: Rat; settings: dosed: perfluorohexane-1-sulphonic acid – potassium salt, 4 mg/kg, iv, Female, F344; remark: listed apart in the source
[10] = test system: Rat; settings: 192 h; dosed: perfluorohexane-1-sulphonic acid – potassium salt; 4 mg/kg; iv; Female; F344
[11] = test system: Rat; settings: dosed: perfluorohexane-1-sulphonic acid – potassium salt, 4 mg/kg, iv, Female, F344; remark: listed apart in the source
[12] = test system: Rat; settings: dosed: perfluorohexane-1-sulphonic acid – potassium salt, 4 mg/kg, iv, Female, F344; remark: listed apart in the source
[13] = test system: Rat; settings: dosed: perfluorohexane-1-sulphonic acid – potassium salt, 4 mg/kg, iv, Female, F344; remark: listed apart in the source
[14] = test system: Rat; settings: dosed: perfluorohexane-1-sulphonic acid – potassium salt, 4 mg/kg, iv, Female, F344; remark: listed apart in the source
[15] = test system: Rat; settings: dosed: perfluorohexane-1-sulphonic acid – potassium salt, 4 mg/kg, iv, Female, F344; remark: listed apart in the source
[16] = test system: Rat; settings: dosed: perfluorohexane-1-sulphonic acid – potassium salt, 4 mg/kg, iv, Female, F344; remark: listed apart in the source
[17] = test system: Rat; settings: dosed: perfluorohexane-1-sulphonic acid – potassium salt, 4 mg/kg, iv, Female, F344; remark: listed apart in the source
[18] = test system: Rat; settings: dosed: perfluorohexane-1-sulphonic acid – potassium salt, 4 mg/kg, iv, Female, F344; remark: listed apart in the source
[19] = test system: Rat; settings: dosed: perfluorohexane-1-sulphonic acid – potassium salt, 4 mg/kg, iv, Female, F344; remark: listed apart in the source
[20] = test system: Rat; settings: dosed: perfluorohexane-1-sulphonic acid – potassium salt, 4 mg/kg, iv, Female, F344; remark: listed apart in the source
[21] = test system: Rat; settings: dosed: perfluorohexane-1-sulphonic acid – potassium salt, 4 mg/kg, iv, Female, F344; remark: listed apart in the source
[22] = test system: Rat; settings: dosed: perfluorohexane-1-sulphonic acid – potassium salt, 4 mg/kg, iv, Female, F344; remark: listed apart in the source
[23] = test system: Rat; settings: 1 h; dosed: perfluorohexane-1-sulphonic acid – potassium salt; 4 mg/kg; iv; Female; F344
[24] = test system: Rat; settings: dosed: perfluorohexane-1-sulphonic acid – potassium salt, 4 mg/kg, iv, Female, F344; remark: listed apart in the source
[25] = test system: Rat; settings: dosed: perfluorohexane-1-sulphonic acid – potassium salt, 4 mg/kg, iv, Female, F344; remark: listed apart in the source
[26] = test system: Rat; settings: dosed: perfluorohexane-1-sulphonic acid – potassium salt, 4 mg/kg, iv, Female, F344; remark: listed apart in the source
[27] = test system: Rat; settings: dosed: perfluorohexane-1-sulphonic acid – potassium salt, 4 mg/kg, iv, Female, F344; remark: listed apart in the source
[28] = test system: Rat; settings: dosed: perfluorohexane-1-sulphonic acid – potassium salt, 4 mg/kg, iv, Female, F344; remark: listed apart in the source
[29] = test system: Rat; settings: dosed: perfluorohexane-1-sulphonic acid – potassium salt, 4 mg/kg, iv, Female, F344; remark: listed apart in the source
[30] = test system: Rat; settings: dosed: perfluorohexane-1-sulphonic acid – potassium salt, 4 mg/kg, iv, Female, F344; remark: listed apart in the source

CCCCOC(=O)c1ccccc1C(=O)OCCCC [Di-n-butyl phthalate]
Settings | concentration in plasma [ng/mL]
[1] | 4220
[2] | 1210
[4] | 2950
[5] | 10700

[3], dosed: Di-n-butyl phthalate, 20 mg/kg, Male, Sprague-Dawley
Settings | concentration in plasma [ng/mL]
5 min | 9370
10 min | 3520
20 min | 957

O=S(=O)([O-])C(F)(F)C(F)(F)C(F)(F)C(F)(F)C(F)(F)C(F)(F)F.[K+] [perfluorohexane-1-sulphonic acid – potassium salt]
Settings | concentration in plasma [ng/mL]
[6], 3 h | 2380
[6], 5 min | 4710
[6], 192 h | 1450
[7], 0.5 h | 4010
[7], 24 h | 1450
[8], 5 min | 5590
[8], 6 h | 2440
[8], 192 h | 126
[9], 3 h | 2910
[9], 5 min | 6770
[9], 528 h | 879
[11], 0.5 h | 3610
[11], 12 h | 2480
[11], 864 h | 496
[12], 0.5 h | 4140
[12], 24 h | 1650
[13], 3 h | 3290
[13], 96 h | 566
[14], 0.5 h | 3970
[14], 24 h | 2200
[14], 1200 h | 494
[15], 0.25 h | 4180
[15], 12 h | 1750
[16], 0.25 h | 4180
[16], 6 h | 2530
[16], 864 h | 818
[17], 0.5 h | 2900
[17], 12 h | 2090
[17], 1200 h | 288
[18], 3 h | 3150
[18], 96 h | 484
[19], 0.25 h | 2050
[19], 6 h | 1440
[19], 528 h | 491
[20], 0.5 h | 4200
[20], 24 h | 1370
[21], 5 min | 6140
[21], 6 h | 2330
[21], 192 h | 118
[22], 1 h | 3180
[22], 48 h | 842
[24], 1 h | 3150
[24], 48 h | 1130
[25], 0.25 h | 5150
[25], 12 h | 2040
[26], 1 h | 3140
[26], 24 h | 2330
[26], 1200 h | 393
[27], 5 min | 842
[27], 6 h | 298
[28], 3 h | 2550
[28], 96 h | 387
[29], 1 h | 3840
[29], 48 h | 1000
[30], 0.25 h | 4330
[30], 12 h | 1840

Settings | concentration in plasma [ng/mL]
[10] | 1390
[23] | 170

[3], dosed: perfluorohexane-1-sulphonic acid – potassium salt, 4 mg/kg, Female, F344
Settings | concentration in plasma [ng/mL]
0.25 h | 3900
1 h | 3190
3 h | 1890
5 min | 5260
6 h | 2390
12 h | 2230
24 h | 2030
192 h | 1200
528 h | 519
864 h | 551

Source: EPA's CvTdb concentration-time database
